Structure (SMILES): CNC(=O)c1cc(Oc2ccc(N)cc2)ccn1
- solubility (mole fraction) (in THF, 278.15 K): 0.0898
- solubility (mole fraction) (in THF, 283.15 K): 0.0978
- solubility (mole fraction) (in THF, 288.15 K): 0.108
- solubility (mole fraction) (in THF, 293.15 K): 0.118
- solubility (mole fraction) (in THF, 298.15 K): 0.129
- solubility (mole fraction) (in THF, 303.15 K): 0.143
- solubility (mole fraction) (in THF, 308.15 K): 0.158
- solubility (mole fraction) (in THF, 313.15 K): 0.173
- solubility (mole fraction) (in THF, 318.15 K): 0.192
- solubility (mole fraction) (in THF, 323.15 K): 0.211
- solubility (mole fraction) (in THF, 328.15 K): 0.233
- solubility (mole fraction) (in acetonitrile, 278.15 K): 0.0273
- solubility (mole fraction) (in acetonitrile, 283.15 K): 0.0317
- solubility (mole fraction) (in acetonitrile, 288.15 K): 0.0394
- solubility (mole fraction) (in acetonitrile, 293.15 K): 0.0491
- solubility (mole fraction) (in acetonitrile, 298.15 K): 0.0595
- solubility (mole fraction) (in acetonitrile, 303.15 K): 0.0737
- solubility (mole fraction) (in acetonitrile, 308.15 K): 0.0897
- solubility (mole fraction) (in acetonitrile, 313.15 K): 0.109
- solubility (mole fraction) (in acetonitrile, 318.15 K): 0.133
- solubility (mole fraction) (in acetonitrile, 323.15 K): 0.161
- solubility (mole fraction) (in acetonitrile, 328.15 K): 0.195
- solubility (mole fraction) (in ethanol, 278.15 K): 0.00539
- solubility (mole fraction) (in ethanol, 283.15 K): 0.00707
- solubility (mole fraction) (in ethanol, 288.15 K): 0.00914
- solubility (mole fraction) (in ethanol, 293.15 K): 0.0136
- solubility (mole fraction) (in ethanol, 298.15 K): 0.0179
- solubility (mole fraction) (in ethanol, 303.15 K): 0.0249
- solubility (mole fraction) (in ethanol, 308.15 K): 0.0331
- solubility (mole fraction) (in ethanol, 313.15 K): 0.044
- solubility (mole fraction) (in ethanol, 318.15 K): 0.0587
- solubility (mole fraction) (in ethanol, 323.15 K): 0.0764
- solubility (mole fraction) (in ethanol, 328.15 K): 0.0999
- solubility (mole fraction) (in ethyl acetate, 278.15 K): 0.0528
- solubility (mole fraction) (in ethyl acetate, 283.15 K): 0.0637
- solubility (mole fraction) (in ethyl acetate, 288.15 K): 0.0773
- solubility (mole fraction) (in ethyl acetate, 293.15 K): 0.0919
- solubility (mole fraction) (in ethyl acetate, 298.15 K): 0.11
- solubility (mole fraction) (in ethyl acetate, 303.15 K): 0.129
- solubility (mole fraction) (in ethyl acetate, 308.15 K): 0.151
- solubility (mole fraction) (in ethyl acetate, 313.15 K): 0.179
- solubility (mole fraction) (in ethyl acetate, 318.15 K): 0.207
- solubility (mole fraction) (in ethyl acetate, 323.15 K): 0.238
- solubility (mole fraction) (in ethyl acetate, 328.15 K): 0.28
- solubility (mole fraction) (in methanol, 278.15 K): 0.00809
- solubility (mole fraction) (in methanol, 283.15 K): 0.0117
- solubility (mole fraction) (in methanol, 288.15 K): 0.0158
- solubility (mole fraction) (in methanol, 293.15 K): 0.0203
- solubility (mole fraction) (in methanol, 298.15 K): 0.0276
- solubility (mole fraction) (in methanol, 303.15 K): 0.0369
- solubility (mole fraction) (in methanol, 308.15 K): 0.0488
- solubility (mole fraction) (in methanol, 313.15 K): 0.0634
- solubility (mole fraction) (in methanol, 318.15 K): 0.082
- solubility (mole fraction) (in methanol, 323.15 K): 0.105
- solubility (mole fraction) (in methanol, 328.15 K): 0.134
- solubility (mole fraction) (in n-butanol, 278.15 K): 0.00322
- solubility (mole fraction) (in n-butanol, 283.15 K): 0.0044
- solubility (mole fraction) (in n-butanol, 288.15 K): 0.00563
- solubility (mole fraction) (in n-butanol, 293.15 K): 0.00781
- solubility (mole fraction) (in n-butanol, 298.15 K): 0.00986
- solubility (mole fraction) (in n-butanol, 303.15 K): 0.0132
- solubility (mole fraction) (in n-butanol, 308.15 K): 0.0171
- solubility (mole fraction) (in n-butanol, 313.15 K): 0.0222
- solubility (mole fraction) (in n-butanol, 318.15 K): 0.0287
- solubility (mole fraction) (in n-butanol, 323.15 K): 0.0366
- solubility (mole fraction) (in n-butanol, 328.15 K): 0.0466
- solubility (mole fraction) (in n-propanol, 278.15 K): 0.00451
- solubility (mole fraction) (in n-propanol, 283.15 K): 0.00593
- solubility (mole fraction) (in n-propanol, 288.15 K): 0.00778
- solubility (mole fraction) (in n-propanol, 293.15 K): 0.0111
- solubility (mole fraction) (in n-propanol, 298.15 K): 0.0135
- solubility (mole fraction) (in n-propanol, 303.15 K): 0.0181
- solubility (mole fraction) (in n-propanol, 308.15 K): 0.0237
- solubility (mole fraction) (in n-propanol, 313.15 K): 0.0308
- solubility (mole fraction) (in n-propanol, 318.15 K): 0.0396
- solubility (mole fraction) (in n-propanol, 323.15 K): 0.0503
- solubility (mole fraction) (in n-propanol, 328.15 K): 0.0638
